From ChEMBL document CHEMBL5465560, “Selectivity Literature for EUbOPEN Chemogenomic Library” (2024)
Blank lines part the entries; values can stand above or below the molecule they belong to.

What was measured:
[1] = molecular target: T1, Megakaryocyte-associated tyrosine-protein kinase (Homo sapiens) (UniProt P42679); assay: Selectivity interaction (KinomeScan (DiscoverX)) EUB0001079a MATK; conditions: at 1 µM
T1 sequence (whole entry): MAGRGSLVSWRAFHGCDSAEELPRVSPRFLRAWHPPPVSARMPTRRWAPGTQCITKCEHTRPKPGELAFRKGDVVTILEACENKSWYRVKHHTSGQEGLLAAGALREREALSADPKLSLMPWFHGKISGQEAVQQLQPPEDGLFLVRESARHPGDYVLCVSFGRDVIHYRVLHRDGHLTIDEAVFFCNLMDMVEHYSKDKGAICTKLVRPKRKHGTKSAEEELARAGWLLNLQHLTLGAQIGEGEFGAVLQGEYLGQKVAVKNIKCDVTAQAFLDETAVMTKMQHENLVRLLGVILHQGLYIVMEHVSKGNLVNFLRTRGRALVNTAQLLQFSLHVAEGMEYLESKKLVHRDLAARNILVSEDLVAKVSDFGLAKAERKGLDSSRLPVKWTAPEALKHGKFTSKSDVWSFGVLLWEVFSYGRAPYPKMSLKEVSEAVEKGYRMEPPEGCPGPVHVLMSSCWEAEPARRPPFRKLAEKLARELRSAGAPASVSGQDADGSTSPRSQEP

[2] = molecular target: T2, Inhibitor of nuclear factor kappa-B kinase subunit beta (Homo sapiens) (UniProt O14920); assay: Selectivity interaction (KinomeScan (DiscoverX)) EUB0000618a IKBKB; conditions: at 10 µM
T2 sequence (whole entry): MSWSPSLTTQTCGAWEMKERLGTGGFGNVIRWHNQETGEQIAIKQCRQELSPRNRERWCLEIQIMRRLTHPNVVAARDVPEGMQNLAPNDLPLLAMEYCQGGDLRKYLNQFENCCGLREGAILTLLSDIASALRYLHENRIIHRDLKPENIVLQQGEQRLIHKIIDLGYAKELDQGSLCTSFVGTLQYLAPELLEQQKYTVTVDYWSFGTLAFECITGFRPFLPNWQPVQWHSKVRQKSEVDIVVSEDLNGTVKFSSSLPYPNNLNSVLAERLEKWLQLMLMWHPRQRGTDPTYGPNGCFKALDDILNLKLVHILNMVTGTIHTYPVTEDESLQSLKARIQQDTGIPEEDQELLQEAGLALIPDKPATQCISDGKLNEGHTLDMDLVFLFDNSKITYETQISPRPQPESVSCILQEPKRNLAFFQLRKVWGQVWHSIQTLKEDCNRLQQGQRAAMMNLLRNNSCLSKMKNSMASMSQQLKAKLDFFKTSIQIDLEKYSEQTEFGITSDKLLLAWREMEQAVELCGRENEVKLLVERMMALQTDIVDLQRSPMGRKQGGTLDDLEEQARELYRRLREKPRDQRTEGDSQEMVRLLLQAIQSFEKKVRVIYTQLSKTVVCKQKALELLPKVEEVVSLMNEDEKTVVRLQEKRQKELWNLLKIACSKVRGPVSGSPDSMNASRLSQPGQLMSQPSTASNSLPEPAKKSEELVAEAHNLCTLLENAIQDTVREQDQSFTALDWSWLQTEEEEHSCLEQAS

[3] = molecular target: T3, Serine/threonine-protein kinase MAK (Homo sapiens) (UniProt P20794); assay: Selectivity interaction (KinomeScan (DiscoverX)) EUB0000595a MAK; conditions: at 10 µM
T3 sequence (whole entry): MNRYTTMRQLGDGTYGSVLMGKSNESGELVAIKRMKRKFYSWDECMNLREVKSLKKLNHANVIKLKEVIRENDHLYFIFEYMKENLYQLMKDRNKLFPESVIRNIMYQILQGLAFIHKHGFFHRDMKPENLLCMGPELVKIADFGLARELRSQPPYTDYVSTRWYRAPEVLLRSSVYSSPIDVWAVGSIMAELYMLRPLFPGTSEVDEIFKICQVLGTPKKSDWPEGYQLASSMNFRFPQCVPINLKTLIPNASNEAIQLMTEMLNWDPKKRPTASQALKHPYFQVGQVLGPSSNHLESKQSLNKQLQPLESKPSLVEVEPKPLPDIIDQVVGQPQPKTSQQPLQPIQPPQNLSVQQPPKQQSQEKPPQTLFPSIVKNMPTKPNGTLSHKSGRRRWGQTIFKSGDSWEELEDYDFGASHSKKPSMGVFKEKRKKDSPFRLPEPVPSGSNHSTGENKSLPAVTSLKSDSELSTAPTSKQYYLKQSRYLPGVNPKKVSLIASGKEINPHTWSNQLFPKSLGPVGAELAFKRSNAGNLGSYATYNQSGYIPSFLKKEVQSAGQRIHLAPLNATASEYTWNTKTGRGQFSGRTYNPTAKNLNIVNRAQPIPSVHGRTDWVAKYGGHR

[4] = molecular target: T4, Serine/threonine-protein kinase STK11 (Homo sapiens) (UniProt Q15831); assay: Selectivity interaction (Kinase panel (KiNativ target engagement assay in Jurkat cells)) EUB0001635a STK11; type: cell-based; conditions: Selectivity number of off-targets 0.0, Selectivity number of targets 233.0, Source Knowledge https://www.sciencedirect.com/science/article/pii/S2451945619300674?via%3Dihub, at 1 µM
T4 sequence (whole entry): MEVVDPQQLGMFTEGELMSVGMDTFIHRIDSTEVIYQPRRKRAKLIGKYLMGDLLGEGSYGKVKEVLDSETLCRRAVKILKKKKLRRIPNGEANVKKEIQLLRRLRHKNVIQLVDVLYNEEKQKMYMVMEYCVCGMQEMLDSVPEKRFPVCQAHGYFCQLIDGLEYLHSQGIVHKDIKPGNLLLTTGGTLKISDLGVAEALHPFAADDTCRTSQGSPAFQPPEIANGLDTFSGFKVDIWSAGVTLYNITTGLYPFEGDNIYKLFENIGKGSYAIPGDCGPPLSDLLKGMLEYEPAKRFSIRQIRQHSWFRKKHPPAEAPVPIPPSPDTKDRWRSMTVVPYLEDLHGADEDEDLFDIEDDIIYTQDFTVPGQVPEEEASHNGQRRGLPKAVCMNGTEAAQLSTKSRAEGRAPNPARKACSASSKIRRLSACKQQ

[5] = molecular target: Calcium/calmodulin-dependent protein kinase type II subunit beta (Homo sapiens) (UniProt Q13554); assay: Selectivity interaction (KinomeScan (DiscoverX)) EUB0000229b CAMK2B; conditions: at 10 µM
[6] = molecular target: Mitogen-activated protein kinase 11 (Homo sapiens) (UniProt Q15759); assay: Selectivity interaction (ProQinase) EUB0000171b MAPK11
Chain of Mitogen-activated protein kinase 11 (Homo sapiens) (Q15759 whole entry): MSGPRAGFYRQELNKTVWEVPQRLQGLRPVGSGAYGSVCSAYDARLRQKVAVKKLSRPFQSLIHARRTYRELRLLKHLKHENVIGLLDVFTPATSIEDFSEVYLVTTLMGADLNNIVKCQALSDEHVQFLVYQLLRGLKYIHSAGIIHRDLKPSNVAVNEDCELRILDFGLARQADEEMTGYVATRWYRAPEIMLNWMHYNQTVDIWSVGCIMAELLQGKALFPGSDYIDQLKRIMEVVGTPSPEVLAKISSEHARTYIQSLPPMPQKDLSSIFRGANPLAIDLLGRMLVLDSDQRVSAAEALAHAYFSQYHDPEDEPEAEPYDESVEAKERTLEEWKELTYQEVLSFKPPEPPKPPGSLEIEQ

Chain of Calcium/calmodulin-dependent protein kinase type II subunit beta (Homo sapiens) (Q13554 whole entry): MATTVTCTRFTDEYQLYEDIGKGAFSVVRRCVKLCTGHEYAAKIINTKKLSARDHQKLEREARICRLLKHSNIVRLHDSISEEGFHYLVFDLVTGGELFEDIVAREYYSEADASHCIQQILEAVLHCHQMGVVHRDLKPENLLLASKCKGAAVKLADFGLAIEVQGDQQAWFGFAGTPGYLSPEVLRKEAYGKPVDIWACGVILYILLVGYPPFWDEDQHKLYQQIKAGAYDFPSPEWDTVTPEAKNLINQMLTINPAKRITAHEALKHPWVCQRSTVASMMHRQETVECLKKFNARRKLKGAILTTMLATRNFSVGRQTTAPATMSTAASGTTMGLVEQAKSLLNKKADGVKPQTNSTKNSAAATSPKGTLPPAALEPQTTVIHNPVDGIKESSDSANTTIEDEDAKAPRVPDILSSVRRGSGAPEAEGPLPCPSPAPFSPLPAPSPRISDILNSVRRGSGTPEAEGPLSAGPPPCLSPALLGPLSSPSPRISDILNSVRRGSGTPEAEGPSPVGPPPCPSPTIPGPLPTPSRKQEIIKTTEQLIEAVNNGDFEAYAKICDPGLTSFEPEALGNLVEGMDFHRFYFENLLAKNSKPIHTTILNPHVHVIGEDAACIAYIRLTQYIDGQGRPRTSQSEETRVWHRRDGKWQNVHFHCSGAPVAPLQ

SMILES: Nc1cnc(N2CCc3cc(S(=O)(=O)Nc4c(F)cc(Cl)cc4F)cc(N4CCCC4=O)c32)nc1 [TP-020n]
% of control [1]: 100%

SMILES: O[C@H]1CC[C@H](Nc2ncc3nc(Nc4c(F)cc(F)cc4F)n([C@H]4CCOC4)c3n2)CC1
% of control [2]: 100%

SMILES: COCC(=O)NC/C=C/c1ccc2ncnc(Nc3ccc(Oc4ccc(C)nc4)c(C)c3)c2c1 [CP-724714]
% of control [3]: 90%

SMILES: C=CC(=O)Nc1ccc(C(=O)Nc2[nH]nc3c2CN(C(=O)N[C@H](CN(C)C)c2ccccc2)C3(C)C)cc1
% of engagement [4]: 11.1%

SMILES: COc1cc(N(C)c2ccnc3ccc(C(F)(F)F)cc23)cc(OC)c1OC
% binding [5]: 83%

% of control ([6]; at 1 µM): 93%
% of control ([6]; at 5 µM): 75%
SMILES: C=CC(=O)Nc1cccc(C(=O)Nc2ccc(Nc3cc(-c4[nH]c(SC)nc4C)ccn3)cc2)c1
